According to EPA's ToxValDB 9.5 (doi:10.2903/j.efsa.2009.178r):

Experiments:
Apis mellifera = conditions: acute, mortality
Canidae = conditions: chronic; duration: 1 years; oral; Dog Other; histopathology: nonneoplastic
Colinus virginianus = conditions: acute; oral; diet; mortality
Daphnia magna = conditions: chronic/long-term; duration: 21 days; mobility
Procambarus sp. = conditions: acute; duration: 96 hours; mortality
Tagia sp. = conditions: acute; mortality
Aphidius rhopalosiphi = assay: LR50; higher = less toxic; conditions: not reported; mortality
Typhlodromus pyri = assay: LR50; higher = less toxic; conditions: not reported; mortality

COC(=O)c1ccccc1CS(=O)(=O)NC(=O)Nc1nc(OC)cc(OC)n1 [Bensulfuron-methyl]
LD50 (Anas platyrhynchos; acute, oral, unspecified, M/F, mortality): ≥ 2510 mg/kg
NOEC (Anas platyrhynchos; reproductive): 83 mg/kg-day
LC50 (Anas platyrhynchos; short-term, oral, feed, mortality): > 1690 mg/kg-day
LD50 (Apis mellifera; dermal): > 100 µg/piece
LD50 (Apis mellifera; oral, unspecified): > 51.4 µg/piece
NOAEL (Canidae): 19.9 mg/kg-day
LC50 (Colinus virginianus): > 1680 mg/kg-day
NOEC (Daphnia magna): 12 mg/L
LC50 (Oncorhynchus mykiss; acute, duration: 96 hours, mortality): > 66 mg/L
NOEC (Oncorhynchus mykiss; chronic/long-term, duration: 90 days, other): 1.5 mg/L
LC50 (Procambarus sp.): > 71 mg/L
LD50 (Rattus norvegicus; acute, oral, mortality): ≥ 5000 mg/kg
NOEL (Rattus norvegicus; reproduction developmental, reproduction): 20.9 mg/kg-day
LC50 (Tagia sp.): > 1000 mg/kg
LR50 (Aphidius rhopalosiphi): > 600 g/ha
LR50 (Typhlodromus pyri): > 600 g/ha
